PMC9769694, “Discovery of Two Inhibitors of the Type IV Pilus Assembly ATPase PilB as Potential Antivirulence Compounds” (Microbiology Spectrum, 2022)

Columns and labels:
A. nosocomialis = assay: Growth in liquid culture; type: cell-based, Acinetobacter nosocomialis; settings: up to 512 μM (highest tested), data not shown
Description: (§1) These include many bacteria with alarming prevalence for causing antibiotic-resistant infection ([12]). […] This is important because, for the development of antivirulence chemotherapies, the small molecules should not have an inhibitory effect on bacterial growth. Otherwise, they would select for resistance, just like antibiotics. From a chemical structure perspective, levodopa is 3,4-dihydroxyphenylalanine (Fig. 2), or phenylalanine with two hydroxyl groups. […] These preliminary studies of structure and activity relationships are consistent with benserazide and levodopa being specific inhibitors of PilB. As mentioned earlier, work with trifluoperazine ([25]) and P4MP4 ([26], [27]) has provided the proof of principle for antivirulence therapies with anti-T4P compounds. It is also encouraging that a compound targeting the adhesin function of the type 1 pilus of the uropathogenic E. coli (UPEC) ([47]) has moved to the clinical trial phase in the drug development pipeline ([48]).

M. xanthus = assay: Growth in liquid culture; type: cell-based, Myxococcus xanthus; settings: up to 512 μM (highest tested), data not shown
Description: as §1

[1] = test system: M. xanthus adventurous (A) motility; assay: Expansion of ΔpilB strain DK10416 (A motility only) on hard agar; type: cell-based, Myxococcus xanthus; settings: up to 128 μM
Description: On the other hand, YZ1674 and YZ2232, which have both A and S motility, were affected in their expansion on hard agar by both compounds (Fig. S4 and S5) at concentrations similar to those on soft agar. Indeed, the results with hard agar plates mirror those with soft agar. […] Because neither benserazide nor levodopa had any effect on A motility (Fig. S3C and D), the net differences on hard agar at different concentrations of the inhibitor (Fig. S4) can be viewed as confirmation of its effect on S motility (Fig. 5). […] It is plausible that this inhibition is attributable to their effects on the PilB ATPase in vivo.
M. xanthus was grown and maintained at 32°C in Casitone-yeast extract (CYE) medium ([49]). Motility assays were conducted with strains DK10416 (ΔpilB) ([40]), YZ1674 (ΔpilB att::MxpilB) ([50]), and YZ2232 (ΔpilB att::MC3pilB) ([30], [51]) as previously described ([28]). One modification was that 10% India ink was included in the cell suspension to mark the initial spot on agar plates. All experiments were conducted in quintuplicates and the diameter of the initial spot, as marked by India ink, was subtracted for data analysis.

[2] = test system: A. nosocomialis biofilm formation; assay: Biofilm formation, microplate assay with crystal violet staining; type: cell-based, Acinetobacter nosocomialis; settings: WT, P < 0.05
Description: The inhibitors may thus interact with conserved features of the PilB ATPase family. A. nosocomialis PilB ([19]), whose N terminus is not similar to the MshEN domain (data not shown), shares ~53% identity and ~74% homology with MxPilB and MC3PilB in the ATPase domain (Fig. S1). We analyzed whether benserazide and levodopa could impact the T4P-powered twitching motility ([19], [44]) of A. nosocomialis (Fig. 7), an opportunistic pathogen in the Acinetobacter calcoaceticus-Acinetobacter baumannii (ACB) complex ([45]). As shown in Fig. 7A and B and Fig. S7, benserazide and levodopa impede the twitching motility of WT A. nosocomialis in a concentration-dependent manner.
FIG 7 Benserazide and levodopa inhibit Acinetobacter nosocomialis twitching motility and biofilm formation. […] (C and D) Biofilms formed by A. nosocomialis with (C) benserazide or (D) levodopa were analyzed by a microplate assay with crystal violet (CV) staining. […]
The A. nosocomialis wild-type M2 strain and an isogenic pilA deletion (ΔpilA) mutant ([19], [46]) were used in this study. […] The twitching motility of the M2 strain of A. nosocomialis was analyzed with 1% crystal violet (CV) for staining, and twitching areas were used as measures of motility as previously described ([46]). […] A. nosocomialis biofilm formation was analyzed using microplates and CV staining as previously described ([53], [54]). […]

Escherichia coli = assay: Growth in liquid culture; type: cell-based; settings: up to 512 μM (highest tested), data not shown
Description: as §1

Structure (SMILES): NC(CO)C(=O)NNCc1ccc(O)c(O)c1O (stereo not shown) [benserazide]
- effect on growth in liquid culture (A. nosocomialis): neither benserazide nor levodopa had any discernible effect on the growth
- effect on growth in liquid culture (M. xanthus): neither benserazide nor levodopa had any discernible effect on the growth
- effect on expansion of DK10416 (A motility) [1]: neither benserazide nor levodopa influenced the expansion of DK10416
- concentration significantly reducing biofilm formation [2]: ≥ 32 µM
- effect on growth in liquid culture (Escherichia coli): neither benserazide nor levodopa had any discernible effect on the growth

Structure (SMILES): N[C@@H](Cc1ccc(O)c(O)c1)C(=O)O [levodopa, 3,4-dihydroxyphenylalanine]
- effect on growth in liquid culture (A. nosocomialis): neither benserazide nor levodopa had any discernible effect on the growth
- effect on growth in liquid culture (M. xanthus): neither benserazide nor levodopa had any discernible effect on the growth
- effect on expansion of DK10416 (A motility) [1]: neither benserazide nor levodopa influenced the expansion of DK10416
- concentration significantly reducing biofilm formation [2]: ≥ 32 µM
- effect on growth in liquid culture (Escherichia coli): neither benserazide nor levodopa had any discernible effect on the growth
